From US11382889B2, “NRF2 activators for the prevention and/or treatment of axonal degeneration” (priority 2018, dated 2022)
Where a name gives a salt, the structure may show the parent alone.

How the values were obtained:
[1] = Tolerability of dietary DMF in mice (weight, food intake, adverse events); conditions: DMF 100 mg/kg/day in chow
From the text: We used male mice of a pure C57BL/6J background. All methods employed in this study were in accordance with the Guide for the Care and Use of Laboratory Animals (Guide, 8th edition, 2011, NIH) and European (2010/63/UE) and Spanish (RD 53/2013) legislation. Experimental protocol had been approved by IDIBELL, IACUC (Institutional Animal Care and Use Committee) and regional authority (3546 DMAH, Generalitat de Catalunya, Spain). IDIBELL animal facility has been accredited by The Association for Assessment and Accreditation of Laboratory Animal Care (AAALAC, Unit 1155). Animals were housed at 22° C. on specific-pathogen free conditions, in a 12-hour light/dark cycle, and ad libitum access to food and water. Cages contained 3 to 5 animals.
DMF was mixed into AIN-76A chow from Dyets (Bethlehem, Pa., USA) to provide a dose of 100 mg/kg/day. Human equivalent dose would be 8 mg/kg/day ([…] in a typical 60 kg person). This is equivalent to the starting dose of BG-12/Tecfidera that is 120 mg twice a day for MS patients (EMA/204830/2013).
For the characterization of biochemical signs on adult X-ALD mice, 8-months-old animals were randomly assigned to one of the following dietary groups for 4 months.
Group I: wild-type (WT) mice received normal AIN-76A chow (n=12); group II: Abcd1^− mice received normal AIN-76A chow (n=12); group III: Abcd1^− mice received AIN-76A chow containing DMF (n=12). To evaluate the effect of DMF on the clinical signs of AMN-like pathology, 12-months-old animals were randomly assigned to one of the following dietary groups for 6 months. Group I: WT mice received normal AIN-76A chow (n=14); group II: Abcd1^−/Abcd2^−/− mice received normal AIN-76A chow (n=16); group III: Abcd1^−/Abcd2^−/− mice received AIN-76A chow containing DMF (n=14).

NRF2 = NRF2 protein levels and NRF2-target gene expression in Abcd1− mice spinal cord after dietary DMF; format: in vivo; conditions: 12 months of age, DMF 100 mg/kg/day in chow for 4 months
From the text: a) NRF2 protein levels in WT (n=6), Abcd1^− (n=6) and DMF-treated Abcd1^− mice (Abcd1^−+DMF, n=6) mice spinal cord at 12 months of age. Protein levels were normalized relative to γ-TUB and quantification is depicted as fold change to WT (Wild type) mice. b) NRF2-dependent antioxidative genes (Hmox1, Nqo1 and Gst α 3) expression in WT (n=8), Abcd1^− (n=8) and Abcd1^−+DMF (n=8) mice spinal cord at 12 months of age. Gene expression levels were normalized relative to Rplp0. Quantification is represented as fold change to WT mice. c) Mitochondrial DNA (mtDNA) levels in WT (n=8), Abcd1^− (n=8) and Abcd1^−+DMF (n=8) mice spinal cord at 12 months of age. mtDNA content was measured by quantitative RT-PCR and expressed as the ratio of mtDNA (CytB levels) to nuclear DNA (nDNA, Cebpa levels). Quantification is depicted as fold change to WT mice. d) Sirt1, Pgc-1α, Nrf1 and Tfam expression was measured by quantitative RT-PCR in WT (n=8), Abcd1^− (n=8) and Abcd1^−+DMF (n=8) mice spinal cord at 12 months of age. Gene expression levels were normalized relative to Rplp0. Quantification is depicted as fold change to WT mice. e) ATP levels in WT (n=8), Abcd1^− (n=8) and Abcd1^−+DMF (n=8) mice spinal cord at 12 months of age. Quantification is represented as fold change to WT mice. […]

[2] = any treatment protocol (4 or 6 months)

SMILES: COC(=O)/C=C/C(=O)OC [DMF, dimethyl fumarate]
- adverse events or death during treatment ([1]; 4 or 6 months): none of the mice administered with DMF experienced any adverse events or death
- effect on food intake [1, 2]: no effect
- effect on weight [1, 2]: no effect
- NRF2 protein levels (NRF2): induced
- NRF2 target genes expression (Hmox1, Nqo1, Gstα3) (NRF2): induced
